Results: PubChem BioAssay AID624395 (The Scripps Research Institute Molecular Screening Center, 2012)
Active and inactive are the calls of the source. The rule behind the calls is not given here.

Test system: cell-based VP16 transactivation luciferase luminescence
Assay: VP16 transactivation luciferase reporter inhibitors, dose response, counter-screen for NR2E3 agonist project, cell-based, luminescence (AID 624395)

SMILES | IC50
COc1cccc(N2CCN(c3nc(-c4ccccc4C)cc(=O)[nH]3)CC2)c1 | 4.57 µM
CCC(Sc1nc(C)cc(=O)[nH]1)C(=O)Nc1sc2c(c1C#N)CCCC2 (stereo unspecified) | 5.06 µM
O=C(Nc1ccc(Cn2cccn2)cc1)c1ccc(COc2ccccc2Br)cc1 | > 39.8 µM (inactive)
S=C(NN=Cc1ccccn1)Nc1ccccn1 | 4.44 µM
CC(C)c1ccc(-c2csc(NC(=O)c3cccs3)c2C(=O)O)cc1 | 12.1 µM (inactive)
O=C1c2ccccc2C(=O)c2[nH]c(=O)[nH]c21 | 4.74 µM
Cc1ccnc(NC(=O)Cc2ccc(-c3ccccc3)cc2)c1 | > 39.8 µM (inactive)
CCC1(O)C(=O)OCc2c1cc1n(c2=O)Cc2cc3c(N)cccc3nc2-1 (stereo unspecified) | 2.33 µM
CC[C@@]1(O)C(=O)OCc2c1cc1n(c2=O)Cc2cc3c(N)cccc3nc2-1 | 1.99 µM
C#Cc1cccc(Nc2nc(NCc3ccccc3)nc3ccsc23)c1 | 12.8 µM (inactive)
Cc1ccnc(NC(=O)C2CCN(S(=O)(=O)c3c(C)c(C)cc(C)c3C)CC2)c1 | 13.2 µM (inactive)
O=[N+]([O-])c1cc(C(F)(F)F)cc([N+](=O)[O-])c1NCCNC(=S)Nc1ccc(Cl)c(Cl)c1 | 11.5 µM (inactive)
CC(C)N1CCc2c(sc(NC(=O)c3ccc([N+](=O)[O-])o3)c2C(N)=O)C1 | 3.05 µM
CCOC(=O)[C@]12Cc3cc(C)ccc3[C@H]1N(C1CCCCC1)C(=O)c1cc(OC)ccc12 | 4.32 µM
CCC(=O)NC(c1cccs1)c1cc([N+](=O)[O-])c2cccnc2c1O (stereo unspecified) | 3.89 µM
CCC(=O)N1CCCc2cc(S(=O)(=O)N3CCN(c4ccccn4)CC3)ccc21 | 22.5 µM (inactive)
N#Cc1c(-c2ccccc2)cc(-c2ccccc2)nc1SCCC(=O)O | 31.5 µM (inactive)
O=[N+]([O-])c1ccc(NC(=S)NCCc2ccc(F)cc2)cc1 | 5.02 µM
COc1cc2c(O)c3c(c(-c4ccc5c(c4)OCO5)c2cc1OC)C(=O)OC3 | 2.3 µM
COCc1nnc(NC(=O)c2ccc(S(=O)(=O)N(CC(C)C)CC(C)C)cc2)o1 | 6.62 µM
CN(C)c1ccc(/C=C/c2cc[n+](C)c3ccccc23)cc1 | 6.66 µM

SMILES | IC50
COc1ccc([C@@H]2C[C@H]3[C@@H](CN2S(=O)(=O)c2ccccc2)C(=O)C[C@@H](c2cccc(Cl)c2)N3S(=O)(=O)c2ccc(C)cc2)cc1 | 4.51 µM
O=S(=O)(/C=C/C=C/S(=O)(=O)c1ccccc1)c1ccccc1 | 11.7 µM (inactive)
COc1ccc2c(CC(=O)Nc3ncc(C)s3)coc2c1 | > 39.8 µM (inactive)
O=S(=O)(/C(=C\c1ccc(C(F)(F)F)cc1)c1nc2ccccc2[nH]1)c1ccccc1 | 10.8 µM (inactive)
CCC(C)Nc1nc(-c2ccccn2)nc2ccccc12 (stereo unspecified) | 3.93 µM
Nc1nc(-c2ccccn2)nc(N)c1Cc1c(F)cccc1Cl | 2.69 µM
CCOC(=O)N1CCN(C(=O)c2ccc(S(=O)(=O)Nc3ccc(C)cc3)cc2)CC1 | 8.62 µM
CCN(c1ccccc1)S(=O)(=O)c1ccc(C(=O)Nc2nnc(CSC)o2)cc1 | 12.7 µM (inactive)
Oc1[nH]c2ccc(Br)cc2c1N=NC(=S)N1CCOCC1 | > 13.3 µM (inactive)
C=C1C(=O)O[C@@H]2C[C@@H](C)[C@@H]3C=CC(=O)[C@@]3(C)[C@@H](O)[C@H]12 | 4.37 µM
Cc1ccc(C#N)c(SCc2nnc(-c3ccc(Cl)cc3)o2)n1 | 0.0132 µM
Nc1nc(-c2ccccn2)nc(N)c1Cc1ccc(Cl)cc1Cl | 4.59 µM
COc1ccc(CNC(=O)c2c(C)oc3c2C(=O)c2ccccc2C3=O)cc1 | 1.18 µM
Cc1ccc(S(=O)(=O)c2ccc([N+](=O)[O-])o2)cc1 | 6.32 µM
O=[N+]([O-])c1ccc(NS(=O)(=O)c2ccccc2)c(Cl)c1 | 4.38 µM
CC1CCC/C=C/C2CC(O)CC2C(O)/C=C/C(=O)O1 (stereo unspecified) | 1.28 µM
CCCCC[C@@H]1C=C(C(=O)O)[C@H](c2ccc(Cl)c(Cl)c2)N1S(=O)(=O)c1ccc(C)cc1 | 8.77 µM
Oc1[nH]c2ccccc2c1N=NC(=S)N1CCOCC1 | > 39.9 µM (inactive)
Cc1ccsc1C(=O)OCC(=O)c1cc(C)n(CC2CCCO2)c1C (stereo unspecified) | 0.0525 µM
O=[N+]([O-])c1ccc(O)c2ncccc12 | 6.36 µM
